Assay [1] addresses T1, human TLR7 (Homo sapiens, UniProt Q9NYK1).
T1 construct: host or cells: HEK293
T1 sequence (Q9NYK1 27-1049): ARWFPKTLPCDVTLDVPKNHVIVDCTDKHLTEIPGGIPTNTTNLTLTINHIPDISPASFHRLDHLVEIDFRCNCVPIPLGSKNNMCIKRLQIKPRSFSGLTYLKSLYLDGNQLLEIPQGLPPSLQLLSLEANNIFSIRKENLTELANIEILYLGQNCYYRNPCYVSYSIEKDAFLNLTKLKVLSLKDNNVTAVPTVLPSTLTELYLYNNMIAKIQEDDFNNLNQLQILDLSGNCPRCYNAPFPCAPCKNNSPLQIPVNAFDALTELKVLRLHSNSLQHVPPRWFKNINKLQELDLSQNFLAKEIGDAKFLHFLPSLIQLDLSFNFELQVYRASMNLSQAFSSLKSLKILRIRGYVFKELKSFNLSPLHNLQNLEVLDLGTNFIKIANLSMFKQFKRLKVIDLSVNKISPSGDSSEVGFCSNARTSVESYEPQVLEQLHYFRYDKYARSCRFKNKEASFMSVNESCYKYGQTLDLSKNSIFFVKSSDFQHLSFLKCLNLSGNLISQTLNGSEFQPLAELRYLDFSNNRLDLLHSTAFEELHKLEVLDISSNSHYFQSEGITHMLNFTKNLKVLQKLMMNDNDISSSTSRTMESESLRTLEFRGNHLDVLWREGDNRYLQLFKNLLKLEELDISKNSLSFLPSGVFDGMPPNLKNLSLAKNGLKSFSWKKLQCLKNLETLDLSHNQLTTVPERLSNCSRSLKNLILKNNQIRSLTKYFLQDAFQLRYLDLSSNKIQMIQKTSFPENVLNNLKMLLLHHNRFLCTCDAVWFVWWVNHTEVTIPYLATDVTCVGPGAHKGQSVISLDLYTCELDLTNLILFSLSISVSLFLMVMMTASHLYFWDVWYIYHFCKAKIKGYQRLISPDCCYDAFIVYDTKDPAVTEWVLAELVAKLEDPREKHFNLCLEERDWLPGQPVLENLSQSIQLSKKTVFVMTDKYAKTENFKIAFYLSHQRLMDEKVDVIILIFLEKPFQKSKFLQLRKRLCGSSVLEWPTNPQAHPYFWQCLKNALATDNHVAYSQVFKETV
Kind of assay: TLR7 reporter cell assay (HEK293 cells stably expressing human TLR7 with NF-κB-driven SEAP reporter). The format is cell-based. As to conditions: for EC50: fit of SEAP dose response, ymax from 28.5 μM resiquimod. An excerpt: The engagement of TLRs by cognate ligands triggers downstream signaling cascades, leading to the activation of NF-κB and other transcription factors which initiate various immunomodulatory effects. The human embryonic kidney cell line, HEK293, is essentially non-responsive to TLR agonists, but ectopic expression of TLRs in these cells allows cognate agonists to activate endogenous NF-κB. Accordingly, the HEK293-TLR-NF-κB inducible reporter system is used to assay TLR agonists.
HEK293 cell lines stably expressing human TLR7 or TLR8 together with an NF-κB-driven-secreted alkaline phosphatase (SEAP) reporter were invented at InvivoGen (San Diego, California, USA) and used to assess compounds of the present invention for TLR7 and TLR8 agonist activities. Cells were seeded at 2-5×10^4 cells/well in 96 well plates (200 μl/well) and treated with various concentrations of compound (10 μl) for 15-24 hours. SEAP activity was determined by measuring OD at 650 nm; the media used to culture the cell lines contains the reagents required for SEAP detection. The EC50 values in Table 1 are calculated from fitting the dose response of measured SEAP activity for each compound to the following equation: Y=ymax*c^nh/(EC50^nh+c^nh)+blank where Y is the experimentally measured OD650 at concentration c of test article, blank is the observed OD650 in the absence of TLR7 agonist, ymax is the difference between the measured OD650 in the presence of 28.5 μM resiquimod and the blank and values of EC50 and nh are determined by nonlinear least squares analysis. Resiquimod is a known TLR7 and TLR8 agonist.
Compound A is 5-amino-3-((2R,3R,5S)-3-hydroxy-5-((S)-1-hydroxypropyl)tetrahydrofuran-2-yl)thiazolo[4,5-d]pyrimidine-2,7(3H,6H)-dione)

The test system of assay [2] is hPBMCs (Human Peripheral Blood Mononuclear Cells). Kind of assay: Induction of interferon-α in hPBMCs in vitro. The settings on record: for Emax / minimal effective concentration: Homo sapiens, PBMC; for Emax: 24 h, peak IFNα2a as percentage of peak response of standard 2-Amino-7-(cyclopropylmethyl)-9-B-D-xylofuranosyl-7,9-dihydro-1H-purine-6,8-dione, averaged across donors, read-out: IFNrmax, Relative Maximal IFNα2a Production (%); for minimal effective concentration: minimal effective concentration for interferon-α production (generally at least 80 pg/ml above baseline), geometric mean across at least three donors, 24 hours, read-out: Weighted MEC. The assay is classed as cell-based. The protocol: Treatment of hPBMCs with a TLR7 agonist typically induces some production of interferon-α as well as lesser amounts of a variety of other cytokines and chemokines. A typical experiment uses hPBMCs isolated from a healthy donor and placed in replicate cell culture wells; typically 1.0-7.5×10^6 cells are placed in each well. A test compound is added and the cells are cultured for 24 hours at 37° C. in a humidified atmosphere containing 5% CO2 post-addition; untreated controls are included. Secreted interferon-α production is measured using an a multisubtype interferon-α ELISA kit like those from PBL Assay Sciences or specifically as IFNα2a as part of a panel of cytokines and chemokines using luminex methodologies.
The minimal effective concentration (MEC) is the minimum concentration in a dose response curve where a significant increase in interferon-α production (generally at least 80 pg/ml) is observed above baseline. MEC values for each compound are determined for at least three donors. The weighted MEC for each compound is the geometric mean of all individual MECs across all donors. Concentrations tested typically consist of a two-fold dilution series starting at 100 μM. In the calculation of weighted MEC, any individual MEC value greater the highest concentration tested is arbitrarily set to two times the highest concentration tested unless all MECs for a compound exceed this value. The maximal amount of IFNα2a for each donor is determined from dose dependence for each compound.
In order to normalize for variation in each hPBMC preparation, these values are first transformed by expressing as a percentage of peak response measured with a standard (2-Amino-7-(cyclopropylmethyl)-9-B-D-xylofuranosyl-7,9-dihydro-1H-purine-6,8-dione) and then averaging the results across all donors, this average referred to as IFNrmax.
IFNmax is the maximum amount of IFN observed at any concentration across the evaluated concentration range. MEC and IFNmax values for three select compound are shown for three donors (Table 3). The range of tested concentrations were 0.625-5 μM for Imiquimod, 3.125-100 μM for both Compound A and Compound 1, 12.5-100 μM for Compound 2.

Where [3] appears, read: HEK293, 500 μM compound, SEAP activity (OD 650 nm) relative to 28.5 μM resiquimod, 15-24 hours, read-out: Response at 500 μM Compound as a Percent of Resiquimod Response.

Read-outs that look alike come from different tables or passages of the source. A value given as a limit tells only on which side of the number the result lay.

From patent publication US12187759B2, “TLR7 agonists” (Primmune Therapeutics, Inc., priority 2019, dated 2025) come the findings set out here.

Turning to `C#CCn1c(=O)n([C@@H]2O[C@H]([C@H](O)CC)C[C@H]2O)c2nc(N)[nH]c(=O)c21` [Compound 2, 2-amino-9-((2R,3R,5S)-3-hydroxy-5-((R)-1-hydroxypropyl)tetrahydrofuran-2-yl)-7-(prop-2-yn-1-yl)-7,9-dihydro-1H-purine-6,8-dione], in assay [1] (HEK293, read-out: Response at 500 μM Compound as a Percent of Resiquimod Response), the Emax at 500 µM was under 5%. The “Donor 1 MEC” value in assay [2] (Donor 1, interferon-α production) amounted to 50 µM. Also, in assay [2] (Donor 1, maximum IFN at any concentration of the evaluated range), the “Donor 1 IFNmax” value was 4523 pg/mL. In assay [2] (Donor 2, interferon-α production), the “Donor 2 MEC” value was over 100 µM. In addition, in assay [2] (Donor 2, maximum IFN at any concentration of the evaluated range), the “Donor 2 IFNmax” value stood at 9 pg/mL. Moreover, in assay [2] (Donor 3, interferon-α production), the “Donor 3 MEC” value amounted to 100 µM. The “Donor 3 IFNmax” value in assay [2] (Donor 3, maximum IFN at any concentration of the evaluated range) was found to be 3110 pg/mL.

For the compound `CC[C@H](O)[C@@H]1C[C@@H](O)[C@H](n2c(=O)n(CC3CC3)c3c(=O)[nH]c(N)nc32)O1` [Compound 4, 2-Amino-7-(cyclopropylmethyl)-9-((2R,3R,5S)-3-hydroxy-5-((S)-1-hydroxypropyl)tetrahydrofuran-2-yl)-7,9-dihydro-1H-purine-6,8-dione], the Emax at 500 µM in assay [1] (setting [3]) came out at 81%. Moreover, in assay [1] (15-24 hours), the EC50 (commonly the midpoint of the concentration-response curve) was determined as 132 µM. In assay [2], the Emax was determined as 226% and the minimal effective concentration was determined as 12.5 µM.

`C=C=Cn1c(=O)n([C@@H]2O[C@H]([C@@H](O)CC)C[C@H]2O)c2nc(N)[nH]c(=O)c21` [Compound 8, 2-Amino-9-((2R,3R,5S)-3-hydroxy-5-((S)-1-hydroxypropyl)tetrahydrofuran-2-yl)-7-(propa-1,2-dien-1-yl)-7,9-dihydro-1H-purine-6,8-dione]: in assay [1] (setting [3]), the Emax at 500 µM was under 5%. Further, in assay [2], the Emax came out at 215% and the minimal effective concentration amounted to 5.4 µM.

For the compound `C#CCn1c(=O)n([C@@H]2O[C@H]([C@H](C)O)C[C@H]2O)c2nc(N)[nH]c(=O)c21` [Compound 9, 2-Amino-9-((2R,3R,5S)-3-hydroxy-5-((S)-1-hydroxyethyl)tetrahydrofuran-2-yl)-7-(prop-2-yn-1-yl)-7,9-dihydro-1H-purine-6,8-dione], in assay [1] (setting [3]), the Emax at 500 µM came to 58%. In assay [1] (15-24 hours), this compound registered an EC50 of 182 µM. Also, in assay [2], the Emax worked out at 191% and the minimal effective concentration worked out at 6.2 µM.

`C#CCn1c(=O)n([C@@H]2O[C@H]([C@@H](O)CC)[C@H](F)[C@H]2O)c2nc(N)[nH]c(=O)c21` [Compound 13, 2-Amino-9-((2R,3S,4R,5R)-4-fluoro-3-hydroxy-5-((S)-1-hydroxypropyl)tetrahydrofuran-2-yl)-7-(prop-2-yn-1-yl)-7,9-dihydro-1H-purine-6,8-dione]: the Emax at 500 µM in assay [1] (setting [3]) amounted to 92%. In assay [1] (15-24 hours), this compound had an EC50 of 119 µM. Also, in assay [2], the Emax was found to be 353% and the minimal effective concentration is at most 3.3 µM.

For `C#CCn1c(=O)n([C@@H]2O[C@H]([C@@H](O)CO)C[C@H]2O)c2nc(N)[nH]c(=O)c21` [Compound 14, 2-Amino-9-((2R,3R,5S)-5-((S)-1,2-dihydroxyethyl)-3-hydroxytetrahydrofuran-2-yl)-7-(prop-2-yn-1-yl)-7,9-dihydro-1H-purine-6,8-dione], in assay [1] (setting [3]), the Emax at 500 µM was under 5%. Also, in assay [2], the Emax is at most 10% and the minimal effective concentration is over 50 µM.

Consider `C#CCn1c(=O)n([C@@H]2O[C@H]([C@@H](O)CN)C[C@H]2O)c2nc(N)[nH]c(=O)c21` [Compound 15, 2-Amino-9-((2R,3R,5S)-5-((S)-2-amino-1-hydroxyethyl)-3-hydroxytetrahydrofuran-2-yl)-7-(prop-2-yn-1-yl)-7,9-dihydro-1H-purine-6,8-dione], for which, in assay [1] (setting [3]), the Emax at 500 µM is under 5%. In addition, in assay [2], the Emax was at most 10% and the minimal effective concentration was over 50 µM.

Turning to `C#CCn1c(=O)n([C@@H]2O[C@H]([C@@H](O)CNC)C[C@H]2O)c2nc(N)[nH]c(=O)c21` [Compound 16, 2-Amino-9-((2R,3R,5S)-3-hydroxy-5-((S)-1-hydroxy-2-(methylamino)ethyl)tetrahydrofuran-2-yl)-7-(prop-2-yn-1-yl)-7,9-dihydro-1H-purine-6,8-dione], the Emax at 500 µM in assay [1] (setting [3]) was under 5%. In assay [2], the Emax was at most 10% and the minimal effective concentration was over 50 µM.

As for `CC[C@H](O)[C@H]1O[C@@H](n2c(=O)n(CC3CC3)c3c(=O)[nH]c(N)nc32)[C@H](O)[C@H]1F` [Compound 17, 2-Amino-7-(cyclopropylmethyl)-9-((2R,3S,4R,5R)-4-fluoro-3-hydroxy-5-((S)-1-hydroxypropyl)tetrahydrofuran-2-yl)-7,9-dihydro-1H-purine-6,8-dione], in assay [1] (setting [3]), the Emax at 500 µM turned out to be 58%. In addition, it took 358 µM to reach a half-maximal effect in assay [1] (15-24 hours) (EC50). In addition, in assay [2], the Emax turned out to be 185% and the minimal effective concentration is at most 3.1 µM.

Consider `C#CCn1c(=O)n([C@@H]2O[C@H](C(C)(C)O)C[C@H]2O)c2nc(N)[nH]c(=O)c21` [Compound 18, 2-Amino-9-((2R,3R,5S)-3-hydroxy-5-(2-hydroxypropan-2-yl)tetrahydrofuran-2-yl)-7-(prop-2-yn-1-yl)-7,9-dihydro-1H-purine-6,8-dione], for which the Emax at 500 µM in assay [1] (setting [3]) was under 5%. For the same compound, in assay [2], the Emax was at most 10% and the minimal effective concentration is over 50 µM.
